This note sets out measurements from US10682311B2, “Intranasal dexmedetomidine compositions and methods of use thereof” (BAUDAX BIO, INC., priority 2011, dated 2020).

The structures appear in SMILES notation.

The term AUC(0-t) denotes exposure summed from dosing to a finite time, without extrapolation to infinity. Higher therefore signals more exposure. In general, Cmax refers to the highest concentration seen after dosing. The term Tmax denotes the time at which the peak concentration occurs.

This series is described as follows: clinical. The following applies: human, in vivo, 35 ug. From the text:
This was a Phase 1, open-label, two period, repeated dose study in healthy subjects to investigate the safety, tolerability, and pharmacokinetics of intranasal dexmedetomidine. A total of 12 subjects (6 male and 6 female) were planned and enrolled. Healthy subjects between the ages of 18 and 50 years, inclusive, were screened for participation at one study site in the United States within 28 days before study drug administration. Medical history, physical examination, baseline laboratory testing, 12 lead electrocardiogram (ECG), pregnancy testing, vital sign measurements, and informed consent were completed during the screening visit.
During Period 1, subjects received two doses of study medication, separated by six hours. During Period 2, study participants received seven doses of study medication administered at six hour intervals. Study Periods were separated by not less than 24 hours between the last dose in Period 1 and the first dose in Period 2.
Serial blood samples were collected at defined intervals during each study period in order to evaluate the pharmacokinetic properties of intranasally administered dexmedetomidine, and its metabolite. Whole blood was collected in 6 mL evacuated collection tubes treated with K2EDTA.
Plasma samples were to be collected within ±2 minutes of the scheduled post-dose time through 60 minutes after dosing, samples collected 75 minutes to 6 hours after dosing were able to be collected within ±5 minutes, and samples collected at and beyond 12 hours after dosing were able to be collected within ±15 minutes of scheduled post-dose time. Actual times were to be recorded for all events, and any deviation outside the specified ranges were required to be clearly documented in the subject's study records.
Immediately after the collection of each sample, the collection tube was to be gently inverted and then placed in wet ice. Within 30 minutes of withdrawal, the tubes were centrifuged at about 2,000×gravity for 10-15 minutes to separate the cells from the plasma. No aids for separation were to be used. Two aliquots (≥0.5 mL each) of plasma were transferred from each sample with clean pipettes and placed in 2 polypropylene storage tubes in equal volumes. The storage tubes were labeled with the following information: protocol number, subject number, study day and relative time of sample (e.g., Period 1, Dose 1, 10 Minutes after dosing), and biologic matrix to be analyzed (e.g., plasma). Within 60 minutes of the collection time, the storage tubes were to be placed into a freezer at −20° C. or below; they remained in the freezer until shipment for analysis.
For pharmacokinetic analyses in Period 1, up to 12 blood samples were collected from each subject prior to and following administration of each study dose. These were collected at predose (Time 0) and at the following approximate times after each dose of study medication: 10, 20, 30, 45, 60, and 90 minutes and 2 and 4 hours; additional blood samples were collected at 6, 12 and 18 hours after Dose 2. In Period 2, up to 13 blood samples were collected from each subject prior to and following administration of Dose 1 and Dose 7. These were collected at predose (Time 0) and at the following approximate times after dosing with study medication: 10, 20, 30, 45, 60, and 90 minutes and 2 and 4 hours; additional blood samples were collected at 6, 12, 18 and 24 hours after Dose 7. Blood samples for Dose 2 through Dose 6 were collected at predose (Time 0) only. […]

For the compound `Cc1cccc([C@H](C)c2cnc[nH]2)c1C` [Dexmedetomidine, 5-[(1S)-1-(2,3-dimethylphenyl)ethyl]-1H-imidazole], the AUC(0-t) is, setting by setting: (both, AUC0-6) 0.39 ng·h/mL; (both, AUClast) 0.38 ng·h/mL. Further, the Cmax (both, Cmax) is 0.09 ng/mL. Further, the Tmax (both, Tmax) is 1.26 h. The “accumulation (AUC for Dose 1 compared to Dose 7)” value (inhaled or intranasal) was “little evidence of accumulation”.
